Source: PMC4979471 (Cell Death Discovery, 2015)
Like-named read-outs stand apart in the source and are kept apart here.

Columns and labels:
Experiment in all cases: Kinase selectivity, P33-radiolabeled assay
Type in all cases: biochemical
Conditions in all cases: 10 μM ATP
PKD2/PRKD2 = biological target: T1, PKD2/PRKD2 (Homo sapiens, UniProt Q9BZL6)
T1 construct: purchased Reaction Biology Corp
T1 sequence (Q9BZL6 1-878): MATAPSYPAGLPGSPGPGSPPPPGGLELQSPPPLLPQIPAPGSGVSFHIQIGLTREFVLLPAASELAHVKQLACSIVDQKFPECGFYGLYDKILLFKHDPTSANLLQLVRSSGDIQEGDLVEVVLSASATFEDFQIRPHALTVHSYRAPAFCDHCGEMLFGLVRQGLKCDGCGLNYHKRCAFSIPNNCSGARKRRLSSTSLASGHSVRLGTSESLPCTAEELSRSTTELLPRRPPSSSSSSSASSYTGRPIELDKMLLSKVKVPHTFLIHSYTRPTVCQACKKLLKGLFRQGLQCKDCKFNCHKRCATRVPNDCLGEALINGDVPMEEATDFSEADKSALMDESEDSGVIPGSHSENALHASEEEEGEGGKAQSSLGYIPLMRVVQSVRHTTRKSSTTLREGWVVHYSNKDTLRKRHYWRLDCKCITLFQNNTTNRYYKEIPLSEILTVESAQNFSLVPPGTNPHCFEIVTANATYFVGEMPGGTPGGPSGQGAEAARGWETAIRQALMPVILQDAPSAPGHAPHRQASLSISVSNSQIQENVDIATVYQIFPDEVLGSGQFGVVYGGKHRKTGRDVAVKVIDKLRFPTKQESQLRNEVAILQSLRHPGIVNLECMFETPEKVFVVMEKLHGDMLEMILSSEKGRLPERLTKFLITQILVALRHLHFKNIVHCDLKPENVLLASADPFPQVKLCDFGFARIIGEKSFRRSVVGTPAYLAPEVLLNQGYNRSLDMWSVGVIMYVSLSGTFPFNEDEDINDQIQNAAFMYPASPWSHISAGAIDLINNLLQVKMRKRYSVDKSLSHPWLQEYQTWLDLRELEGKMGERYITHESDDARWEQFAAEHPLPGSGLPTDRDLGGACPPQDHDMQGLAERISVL
Outline: (§1)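 Percent residual kinase activity versus DMSO is reported. Conditions: compound at 10 μM, ATP at 10 μM, n = 2.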

FGFR1 = biological target: T2, FGFR1 (Homo sapiens, UniProt P11362)
T2 construct: purchased Reaction Biology Corp
Outline: as §1

P38d/MAPK13 = biological target: T3, P38d/MAPK13 (Homo sapiens, UniProt O15264)
T3 construct: purchased Reaction Biology Corp
T3 sequence (O15264 1-365): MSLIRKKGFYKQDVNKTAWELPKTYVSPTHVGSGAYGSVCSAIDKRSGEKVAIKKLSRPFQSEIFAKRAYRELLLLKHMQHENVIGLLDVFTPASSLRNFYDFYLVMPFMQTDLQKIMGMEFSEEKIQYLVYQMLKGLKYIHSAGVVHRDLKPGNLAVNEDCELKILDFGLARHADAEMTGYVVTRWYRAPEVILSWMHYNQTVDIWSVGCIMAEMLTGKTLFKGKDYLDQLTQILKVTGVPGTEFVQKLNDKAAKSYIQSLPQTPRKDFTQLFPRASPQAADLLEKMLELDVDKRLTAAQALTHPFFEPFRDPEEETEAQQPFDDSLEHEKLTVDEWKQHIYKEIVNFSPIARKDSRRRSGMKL
Outline: as §1

TRKB = biological target: T4, TRKB (Homo sapiens, UniProt Q16620)
T4 construct: purchased Reaction Biology Corp
Outline: as §1

CDK5/p25 = biological target: T5, CDK5/p25 (Homo sapiens, UniProt Q00535)
T5 construct: purchased Reaction Biology Corp
Outline: as §1

NEK7 = biological target: T6, NEK7 (Homo sapiens, UniProt Q8TDX7)
T6 construct: purchased Reaction Biology Corp
Outline: as §1

SIK2 = biological target: T7, SIK2 (Homo sapiens, UniProt Q9H0K1)
T7 construct: purchased Reaction Biology Corp
Outline: as §1

CDK7/cyclin H = biological target: T8, CDK7/cyclin H (Homo sapiens, UniProt P50613)
T8 construct: purchased Reaction Biology Corp
Outline: as §1

PKG1b = biological target: T9, PKG1b (Homo sapiens, UniProt Q13976)
T9 construct: purchased Reaction Biology Corp
T9 sequence (Q13976 1-686 isoform Q13976-2): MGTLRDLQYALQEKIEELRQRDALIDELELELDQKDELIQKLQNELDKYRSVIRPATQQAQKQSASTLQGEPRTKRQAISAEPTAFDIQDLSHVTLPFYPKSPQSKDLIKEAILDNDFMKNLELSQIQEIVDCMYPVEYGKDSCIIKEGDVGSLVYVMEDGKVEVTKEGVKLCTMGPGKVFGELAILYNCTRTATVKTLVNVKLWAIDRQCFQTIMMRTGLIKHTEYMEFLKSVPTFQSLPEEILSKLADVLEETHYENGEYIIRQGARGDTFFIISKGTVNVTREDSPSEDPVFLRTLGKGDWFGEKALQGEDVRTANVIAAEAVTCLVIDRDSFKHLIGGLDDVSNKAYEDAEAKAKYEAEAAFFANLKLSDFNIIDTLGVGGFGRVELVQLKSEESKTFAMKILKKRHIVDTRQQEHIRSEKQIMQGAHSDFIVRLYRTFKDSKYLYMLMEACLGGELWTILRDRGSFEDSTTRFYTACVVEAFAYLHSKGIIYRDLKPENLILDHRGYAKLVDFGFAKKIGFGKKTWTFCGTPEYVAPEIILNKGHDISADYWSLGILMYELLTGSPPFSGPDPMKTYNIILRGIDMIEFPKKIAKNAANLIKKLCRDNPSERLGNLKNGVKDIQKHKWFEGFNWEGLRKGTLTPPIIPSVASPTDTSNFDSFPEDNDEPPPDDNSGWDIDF
Outline: as §1

STK16 = biological target: T10, STK16 (Homo sapiens, UniProt O75716)
T10 construct: purchased Reaction Biology Corp
Outline: as §1

CHK2 = biological target: T11, CHK2 (Homo sapiens, UniProt O96017)
T11 construct: purchased Reaction Biology Corp
Outline: as §1

[1] = read-out: % Enzyme Activity (relative to DMSO controls) AVG
[2] = read-out: % Enzyme Activity (relative to DMSO controls) Data 1
[3] = read-out: % Enzyme Activity (relative to DMSO controls) Data 2

T4 sequence (Q16620 32-822): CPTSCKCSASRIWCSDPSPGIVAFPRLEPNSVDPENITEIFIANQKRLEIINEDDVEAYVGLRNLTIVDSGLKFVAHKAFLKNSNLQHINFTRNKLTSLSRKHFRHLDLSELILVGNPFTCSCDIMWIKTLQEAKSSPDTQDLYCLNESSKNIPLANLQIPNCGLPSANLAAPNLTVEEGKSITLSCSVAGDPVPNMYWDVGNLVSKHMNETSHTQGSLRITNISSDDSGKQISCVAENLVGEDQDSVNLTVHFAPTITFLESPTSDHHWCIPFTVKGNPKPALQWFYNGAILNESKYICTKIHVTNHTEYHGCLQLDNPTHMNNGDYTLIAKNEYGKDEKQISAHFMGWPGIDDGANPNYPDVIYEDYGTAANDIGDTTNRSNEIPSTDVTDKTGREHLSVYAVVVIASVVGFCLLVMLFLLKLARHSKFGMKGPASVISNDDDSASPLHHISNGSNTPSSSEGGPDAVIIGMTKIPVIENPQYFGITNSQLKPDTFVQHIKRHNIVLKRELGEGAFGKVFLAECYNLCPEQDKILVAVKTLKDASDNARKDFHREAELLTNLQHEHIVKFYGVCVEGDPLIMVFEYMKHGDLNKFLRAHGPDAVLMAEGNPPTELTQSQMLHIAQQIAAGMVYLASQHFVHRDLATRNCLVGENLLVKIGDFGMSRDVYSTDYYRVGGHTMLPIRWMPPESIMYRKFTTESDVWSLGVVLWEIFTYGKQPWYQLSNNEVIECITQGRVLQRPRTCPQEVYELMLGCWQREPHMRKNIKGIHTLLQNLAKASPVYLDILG
T8 sequence (P50613 whole entry): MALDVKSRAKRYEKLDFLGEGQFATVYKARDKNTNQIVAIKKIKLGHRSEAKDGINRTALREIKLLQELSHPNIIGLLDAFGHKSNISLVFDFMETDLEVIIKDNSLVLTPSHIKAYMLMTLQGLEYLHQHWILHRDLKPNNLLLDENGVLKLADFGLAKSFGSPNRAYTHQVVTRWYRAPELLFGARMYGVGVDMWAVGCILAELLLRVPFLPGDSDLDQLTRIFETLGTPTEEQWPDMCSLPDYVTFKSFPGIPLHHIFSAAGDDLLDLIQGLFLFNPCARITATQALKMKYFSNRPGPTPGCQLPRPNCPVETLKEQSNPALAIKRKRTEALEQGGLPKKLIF
T8 sequence (P51946 whole entry partner): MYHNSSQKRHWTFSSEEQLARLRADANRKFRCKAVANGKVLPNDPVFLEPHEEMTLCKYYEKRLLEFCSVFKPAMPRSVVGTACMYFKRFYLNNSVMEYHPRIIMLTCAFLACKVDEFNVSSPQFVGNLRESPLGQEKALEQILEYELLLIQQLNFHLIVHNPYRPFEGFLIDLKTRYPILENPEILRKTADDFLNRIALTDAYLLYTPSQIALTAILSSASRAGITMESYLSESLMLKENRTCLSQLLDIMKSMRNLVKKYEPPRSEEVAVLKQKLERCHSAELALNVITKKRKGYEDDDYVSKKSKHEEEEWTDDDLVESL
T8 sequence (P51948 whole entry partner): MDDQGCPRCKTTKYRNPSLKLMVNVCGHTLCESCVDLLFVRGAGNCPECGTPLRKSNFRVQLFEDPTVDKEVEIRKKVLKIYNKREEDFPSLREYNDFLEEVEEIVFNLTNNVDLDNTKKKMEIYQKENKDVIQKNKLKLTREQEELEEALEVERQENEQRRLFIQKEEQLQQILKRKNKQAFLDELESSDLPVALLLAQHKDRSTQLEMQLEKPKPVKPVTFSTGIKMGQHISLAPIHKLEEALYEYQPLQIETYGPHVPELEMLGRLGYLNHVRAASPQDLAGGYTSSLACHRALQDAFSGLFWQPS
T7 sequence (Q9H0K1 whole entry): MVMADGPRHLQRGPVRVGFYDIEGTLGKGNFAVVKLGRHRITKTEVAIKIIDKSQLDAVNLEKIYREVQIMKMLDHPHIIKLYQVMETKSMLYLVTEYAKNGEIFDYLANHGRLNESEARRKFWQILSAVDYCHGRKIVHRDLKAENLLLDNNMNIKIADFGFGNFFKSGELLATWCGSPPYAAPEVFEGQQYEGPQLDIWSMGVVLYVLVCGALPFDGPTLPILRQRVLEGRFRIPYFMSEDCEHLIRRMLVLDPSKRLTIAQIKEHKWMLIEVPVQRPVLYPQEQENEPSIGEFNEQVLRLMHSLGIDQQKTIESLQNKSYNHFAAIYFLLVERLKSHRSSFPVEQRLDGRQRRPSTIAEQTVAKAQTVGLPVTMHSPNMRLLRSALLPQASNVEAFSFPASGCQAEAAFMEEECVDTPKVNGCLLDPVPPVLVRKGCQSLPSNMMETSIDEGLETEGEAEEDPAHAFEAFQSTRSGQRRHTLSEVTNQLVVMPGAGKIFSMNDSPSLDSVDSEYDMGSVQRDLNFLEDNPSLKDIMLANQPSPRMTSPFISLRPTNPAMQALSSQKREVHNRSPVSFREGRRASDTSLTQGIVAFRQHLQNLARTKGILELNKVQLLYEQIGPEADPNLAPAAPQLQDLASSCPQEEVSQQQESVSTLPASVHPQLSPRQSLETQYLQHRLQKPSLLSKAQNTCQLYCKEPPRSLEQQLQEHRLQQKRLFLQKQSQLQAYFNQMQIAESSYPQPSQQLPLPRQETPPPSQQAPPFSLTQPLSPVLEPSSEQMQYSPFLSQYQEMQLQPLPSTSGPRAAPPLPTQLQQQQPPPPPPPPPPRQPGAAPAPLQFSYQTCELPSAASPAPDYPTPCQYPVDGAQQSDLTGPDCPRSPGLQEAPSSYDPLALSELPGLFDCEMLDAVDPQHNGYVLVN
T5 sequence (Q00535 whole entry): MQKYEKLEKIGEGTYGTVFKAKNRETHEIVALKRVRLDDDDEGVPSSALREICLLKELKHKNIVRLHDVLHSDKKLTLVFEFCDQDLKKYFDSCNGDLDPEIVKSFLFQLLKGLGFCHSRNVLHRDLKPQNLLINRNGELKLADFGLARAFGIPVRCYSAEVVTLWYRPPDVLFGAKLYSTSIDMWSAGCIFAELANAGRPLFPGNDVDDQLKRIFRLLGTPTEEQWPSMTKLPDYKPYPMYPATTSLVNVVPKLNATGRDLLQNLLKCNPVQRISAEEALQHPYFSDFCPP
T5 sequence (Q15078 99-307 partner limits assumed): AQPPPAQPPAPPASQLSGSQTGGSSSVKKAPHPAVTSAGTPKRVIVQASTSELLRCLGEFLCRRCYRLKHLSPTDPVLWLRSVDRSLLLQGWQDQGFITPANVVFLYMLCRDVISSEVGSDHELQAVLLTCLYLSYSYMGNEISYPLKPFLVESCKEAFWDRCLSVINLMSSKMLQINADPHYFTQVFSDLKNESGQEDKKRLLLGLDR
T11 sequence (O96017 whole entry): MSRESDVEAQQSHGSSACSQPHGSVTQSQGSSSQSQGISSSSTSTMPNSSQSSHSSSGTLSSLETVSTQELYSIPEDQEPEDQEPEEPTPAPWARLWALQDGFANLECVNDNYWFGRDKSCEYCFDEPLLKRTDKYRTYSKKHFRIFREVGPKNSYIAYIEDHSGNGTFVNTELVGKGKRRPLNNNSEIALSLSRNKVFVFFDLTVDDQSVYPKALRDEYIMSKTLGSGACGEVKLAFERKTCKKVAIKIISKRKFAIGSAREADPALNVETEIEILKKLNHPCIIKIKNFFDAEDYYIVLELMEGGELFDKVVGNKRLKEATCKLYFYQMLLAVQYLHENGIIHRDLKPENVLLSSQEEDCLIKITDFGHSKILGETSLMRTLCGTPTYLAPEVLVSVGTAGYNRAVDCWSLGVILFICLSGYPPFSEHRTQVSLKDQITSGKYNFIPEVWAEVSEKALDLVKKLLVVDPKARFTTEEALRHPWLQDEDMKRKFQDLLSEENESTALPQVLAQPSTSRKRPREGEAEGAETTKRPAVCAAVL
T6 sequence (Q8TDX7 whole entry): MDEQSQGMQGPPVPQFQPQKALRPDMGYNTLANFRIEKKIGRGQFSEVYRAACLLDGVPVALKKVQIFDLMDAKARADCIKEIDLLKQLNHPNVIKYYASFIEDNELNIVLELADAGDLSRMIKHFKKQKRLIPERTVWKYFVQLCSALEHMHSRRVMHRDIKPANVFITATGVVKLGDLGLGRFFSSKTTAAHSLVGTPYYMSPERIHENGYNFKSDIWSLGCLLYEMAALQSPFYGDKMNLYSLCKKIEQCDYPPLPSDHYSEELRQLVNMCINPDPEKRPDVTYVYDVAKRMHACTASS
T2 sequence (P11362 22-822): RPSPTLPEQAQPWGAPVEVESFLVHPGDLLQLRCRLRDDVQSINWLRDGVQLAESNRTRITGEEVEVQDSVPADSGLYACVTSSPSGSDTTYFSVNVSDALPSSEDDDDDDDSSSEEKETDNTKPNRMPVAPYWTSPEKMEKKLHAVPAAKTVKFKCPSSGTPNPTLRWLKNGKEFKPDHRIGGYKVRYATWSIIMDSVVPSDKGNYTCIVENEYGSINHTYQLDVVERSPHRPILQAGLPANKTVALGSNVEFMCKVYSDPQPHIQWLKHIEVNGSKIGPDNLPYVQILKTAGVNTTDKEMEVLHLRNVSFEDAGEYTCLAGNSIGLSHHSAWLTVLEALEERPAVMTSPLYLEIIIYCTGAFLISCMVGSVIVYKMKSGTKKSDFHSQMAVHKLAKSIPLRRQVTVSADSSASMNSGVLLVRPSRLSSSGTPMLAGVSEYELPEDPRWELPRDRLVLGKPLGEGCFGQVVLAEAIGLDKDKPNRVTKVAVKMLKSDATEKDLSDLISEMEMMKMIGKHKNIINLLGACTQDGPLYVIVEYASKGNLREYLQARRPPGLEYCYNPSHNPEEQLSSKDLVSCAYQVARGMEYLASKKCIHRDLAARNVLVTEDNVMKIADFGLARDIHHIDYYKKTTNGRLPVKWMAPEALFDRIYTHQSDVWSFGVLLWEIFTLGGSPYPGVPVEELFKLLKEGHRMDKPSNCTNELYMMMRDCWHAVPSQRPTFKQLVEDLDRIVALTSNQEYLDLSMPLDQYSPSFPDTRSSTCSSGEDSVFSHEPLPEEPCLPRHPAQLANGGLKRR

`CC(C)(C)C(=O)N1N=CC[C@H]1c1ccccc1` [GSK′963] showed a remaining activity at 10 µM (PKD2/PRKD2; [1]) of 102%, a remaining activity at 10 µM (PKD2/PRKD2; [2]) of 101% and a remaining activity at 10 µM (PKD2/PRKD2; [3]) of 104%. For the same compound, the remaining activity at 10 µM (FGFR1; [1]) was 95%, the remaining activity at 10 µM (FGFR1; [2]) was 95.2% and the remaining activity at 10 µM (FGFR1; [3]) was 94.8%. It also gave a remaining activity at 10 µM (P38d/MAPK13; [1]) of 100%, a remaining activity at 10 µM (P38d/MAPK13; [2]) of 99.8% and a remaining activity at 10 µM (P38d/MAPK13; [3]) of 101%. The remaining activity at 10 µM (TRKB; [1]) was 101%, the remaining activity at 10 µM (TRKB; [2]) was 101% and the remaining activity at 10 µM (TRKB; [3]) was 100%. The remaining activity at 10 µM (CDK5/p25; [1]) was 97%, the remaining activity at 10 µM (CDK5/p25; [2]) was 98.1% and the remaining activity at 10 µM (CDK5/p25; [3]) was 95.8%. It also gave a remaining activity at 10 µM (NEK7; [1]) of 98.6%, a remaining activity at 10 µM (NEK7; [2]) of 98.1% and a remaining activity at 10 µM (NEK7; [3]) of 99%. It also gave a remaining activity at 10 µM (SIK2; [1]) of 96.7%, a remaining activity at 10 µM (SIK2; [2]) of 94.8% and a remaining activity at 10 µM (SIK2; [3]) of 98.6%. The remaining activity at 10 µM (CDK7/cyclin H; [1]) was 96.7%, the remaining activity at 10 µM (CDK7/cyclin H; [2]) was 98.8% and the remaining activity at 10 µM (CDK7/cyclin H; [3]) was 94.6%. It also gave a remaining activity at 10 µM (PKG1b; [1]) of 80.5%, a remaining activity at 10 µM (PKG1b; [2]) of 78.3% and a remaining activity at 10 µM (PKG1b; [3]) of 82.6%. The remaining activity at 10 µM (STK16; [1]) was 101%, the remaining activity at 10 µM (STK16; [2]) was 101% and the remaining activity at 10 µM (STK16; [3]) was 101%. The remaining activity at 10 µM (CHK2; [1]) was 105%, the remaining activity at 10 µM (CHK2; [2]) was 106% and the remaining activity at 10 µM (CHK2; [3]) was 104%.
